The molecules below were run against T1, VEGF receptor KDR (VEGFR2) (Homo sapiens, UniProt P35968) (assay: In vitro receptor tyrosine kinase assay (VEGF receptor KDR), DELFIA). Conditions: recombinant GST-VEGFR2 (806-1356), ATP 0.6 uM, enzyme 5 nM; read-out: VEGFR_IC50_UM.
T1 construct: made in house; host or cells: Sf9 cells (Spodoptera frugiperda), baculovirus
T1 sequence (P35968 806-1356): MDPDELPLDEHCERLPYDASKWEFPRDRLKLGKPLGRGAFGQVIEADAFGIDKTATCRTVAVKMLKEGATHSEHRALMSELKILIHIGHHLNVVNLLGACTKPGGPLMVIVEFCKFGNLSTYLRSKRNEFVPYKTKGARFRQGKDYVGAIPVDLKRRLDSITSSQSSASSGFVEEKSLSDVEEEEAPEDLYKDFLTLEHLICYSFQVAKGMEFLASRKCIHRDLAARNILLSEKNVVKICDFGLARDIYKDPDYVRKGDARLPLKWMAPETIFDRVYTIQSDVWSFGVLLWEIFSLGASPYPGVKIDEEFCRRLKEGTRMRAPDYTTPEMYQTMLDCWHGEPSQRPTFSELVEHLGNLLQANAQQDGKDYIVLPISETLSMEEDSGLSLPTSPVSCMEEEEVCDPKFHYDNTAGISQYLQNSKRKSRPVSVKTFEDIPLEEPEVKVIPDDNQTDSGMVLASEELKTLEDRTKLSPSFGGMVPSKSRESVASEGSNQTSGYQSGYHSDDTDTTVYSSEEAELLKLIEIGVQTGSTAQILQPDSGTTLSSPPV
Type: biochemical
Text: In Vitro Receptor Tyrosine Kinase Assay (VEGF receptor KDR)
This test measures the ability of compounds to inhibit the enzymatic activity of recombinant human VEGF receptor enzymatic activity.
A 1.6-kb cDNA corresponding to the catalytic domain of VEGFR2 (KDR) (Genbank accession number AF035121 amino acid 806 to 1356) is cloned into the Pst I site of the pDEST20 Gateway vector (Invitrogen) for the production of a GST-tagged version of that enzyme. This construct is used to generate recombinant baculovirus using the Bac-to-Bac™ system according to the manufacturer's instructions (Invitrogen).
The GST-VEGFR2806-1356 protein is expressed in Sf9 cells (Spodoptera frugiperda) upon infection with recombinant baculovirus construct. Briefly, Sf9 cells grown in suspension and maintained in serum-free medium (Sf900 II supplemented with gentamycin) at a cell density of about 2×10^6 cells/ml are infected with the above-mentioned viruses at a multiplicity of infection (MOI) of 0.1 during 72 hours at 27° C. with agitation at 120 rpm on a rotary shaker. Infected cells are harvested by centrifugation at 398g for 15 min. Cell pellets are frozen at −80° C. until purification is performed.
All steps described in cell extraction and purification are performed at 4° C. Frozen Sf9 cell pellets infected with the GST-VEGFR2806-1356 recombinant baculovirus are thawed and gently resuspended in Buffer A (PBS pH 7.3 supplemented with 1 μg/ml pepstatin, 2 μg/ml Aprotinin and leupeptin, 50 μg/ml PMSF, 50 μg/ml TLCK and 10 μM E64 and 0.5 mM DTT) using 3 ml of buffer per gram of cells. Suspension is Dounce homogenized and 1% Triton X-100 is added to the homogenate after which it is centrifuged at 22500 g, 30 min., 4 °C. The supernatant (cell extract) is used as starting material for purification of GST-VEGFR2806-1356.
The supernatant is loaded onto a GST-agarose column (Sigma) equilibrated with PBS pH 7.3. Following a four column volume (CV) wash with PBS pH 7.3+1% Triton X-100 and 4 CV wash with buffer B (50mM Tris pH 8.0, 20% glycerol and 100mM NaCl), bound proteins are step eluted with 5 CV of buffer B supplemented with 5 mM DTT and 15 mM glutathion. GST-VEGFR2806-1356 enriched fractions from this chromatography step are pooled based on U.V. trace i.e. fractions with high 0.D.280. Final GST-VEGFR2806-1356 protein preparations concentrations are about 0.7 mg/ml with purity approximating 70%. Purified GST-VEGFR2806-1356 protein stocks are aliquoted and frozen at −80° C. prior to use in enzymatic assay.
Inhibition of VEGFR/KDR is measured in a DELFIATM assay (Perkin Elmer). The substrate poly(Glu4, Tyr) is immobilized onto black high-binding polystyrene 96-well plates. The coated plates are washed and stored at 4° C. During the assay, the enzyme is pre-incubated with inhibitor and Mg-ATP on ice in polypropylene 96-well plates for 4 minutes, and then transferred to the coated plates. The subsequent kinase reaction takes place at 30° C. for 10-30 minutes. ATP concentrations in the assay are 0.6 uM for VEGFR/KDR (2× the Km). Enzyme concentration is 5 nM. After incubation, the kinase reactions are quenched with EDTA and the plates are washed. Phosphorylated product is detected by incubation with Europium-labeled anti-phosphotyrosine MoAb. After washing the plates, bound MoAb is detected by time-resolved fluorescence in a Gemini SpectraMax reader (Molecular Devices). Compounds are evaluated over a range of concentrations, and IC50 values (concentration of compounds giving 50% inhibition of enzymatic activity) are determined.
`CN(C)CCN(C)C(=O)C1CCCN(Cc2ccc(-c3cc4nccc(Oc5ccc(NC(=O)NC6CC6)cc5F)c4s3)nc2)C1` (stereo not drawn) [Compound 4, 1-((6-(7-(4-(3-Cyclopropylureido)-2-fluorophenoxy)thieno [3,2-b]pyridin-2-yl)pyridin-3-yl)methyl)-N-(2-(dimethylamino)ethyl)-N-methylpiperidine-3-carboxamide] was tested, and the IC50 was 8 nM.
`CNCCNC(=O)C1CCCN(Cc2ccc(-c3cc4nccc(Oc5ccc(NC(=O)NC6CC6)cc5F)c4s3)nc2)C1` (stereo not drawn) [Compound 5, 1-((6-(7-(4-(3-Cyclopropylureido)-2-fluorophenoxy)thieno[3,2-b]pyridin-2-yl)pyridin-3-yl)methyl)-N-(2-(methylamino)ethyl)piperidine-3-carboxamide] showed an IC50 of 8 nM.
`CN(C)[C@H]1CCN(C(=O)C2CCCN(Cc3ccc(-c4cc5nccc(Oc6ccc(NC(=O)NC7CC7)cc6F)c5s4)nc3)C2)C1` (stereo partly drawn) [Compound 6, 1-Cyclopropyl-3-(4-(2-(5-((3-((S)-3-(dimethylamino)pyrrolidine-1-carbonyl)piperidin-1-yl)methyl)pyridin-2-yl)thieno[3,2-b]pyridin-7-yloxy)-3-fluorophenyl)urea] showed an IC50 of 7 nM.
With `O=C(Nc1ccc(Oc2ccnc3cc(-c4ccc(CN5CCCC(C(=O)N6CC[C@@H](O)C6)C5)cn4)sc23)c(F)c1)NC1CC1` (stereo partly drawn) [Compound 7, 1-Cyclopropyl-3-(3-fluoro-4-(2-(5-((3-((R)-3-hydroxypyrrolidine-1-carbonyl)piperidin-1-yl)methyl)pyridin-2-yl)thieno[3,2-b]pyridin-7-yloxy)phenyl)urea] the IC50 was 7 nM.
Work on `O=C(Nc1ccc(Oc2ccnc3cc(-c4ccc(CN5CCCC(C(=O)N6CC[C@H](O)C6)C5)cn4)sc23)c(F)c1)NC1CC1` (stereo partly drawn) [Compound 8, 1-Cyclopropyl-3-(3-fluoro-4-(2-(5-((3-((S)-3-hydroxypyrrolidine-1-carbonyl)piperidin-1-yl)methyl)pyridin-2-yl)thieno[3,2-b]pyridin-7-yloxy)phenyl)urea] yielded an IC50 of 3 nM.
`O=C(Nc1ccc(Oc2ccnc3cc(-c4ccc(CN5CCCC(C(=O)NC[C@@H](O)CO)C5)cn4)sc23)c(F)c1)NC1CC1` (stereo partly drawn) [Compound 9, 1-((6-(7-(4-(3-Cyclopropylureido)-2-fluoro-phenoxy)thieno[3,2-b]pyridin-2-yl)pyridin-3-yl)methyl)-N-((R)-2,3-dihydroxypropyl)piperidine-3-carboxamide] was tested, and the IC50 was 11 nM.
In the case of `CN(C)CCNC(=O)[C@@H]1CCCN(Cc2ccc(-c3cc4nccc(Oc5ccc(NC(=O)NC6CC6)cc5F)c4s3)nc2)C1` [Compound 10, (R)-1-((6-(7-(4-(3-Cyclopropylureido)-2-fluorophenoxy)thieno[3,2-b]pyridin-2-yl)pyridin-3-yl)methyl)-N-(2-(dimethylamino)ethyl)piperidine-3-carboxamide], the IC50 is reported as 7 nM.
In the case of `CN(CCO)C(=O)[C@H]1CCCN(Cc2ccc(-c3cc4nccc(Oc5ccc(NC(=O)NC6CC6)cc5F)c4s3)nc2)C1` [Compound 11, (S)-1-((6-(7-(4-(3-Ccyclopropylureido)-2-fluorophenoxy)thieno[3,2-b]pyridin-2-yl)pyridin-3-yl)methyl)-N-(2-hydroxyethyl)-N-methylpiperidine-3-carboxamide], the IC50 is reported as 7 nM.
With `CN(CCO)C(=O)[C@@H]1CCCN(Cc2ccc(-c3cc4nccc(Oc5ccc(NC(=O)NC6CC6)cc5F)c4s3)nc2)C1` [Compound 12, (R)-1-((6-(7-(4-(3-Cyclopropylureido)-2-fluorophenoxy)thieno[3,2-b]pyridin-2-yl)pyridin-3-yl)methyl)-N-(2-hydroxyethyl)-N-methylpiperidine-3-carboxamide] the IC50 was 6 nM.
In the case of `CN(C)CCNC(=O)[C@H]1CCCN(Cc2ccc(-c3cc4nccc(Oc5ccc(NC(=O)NC6CC6)cc5F)c4s3)nc2)C1` [Compound 13, (S)-1-((6-(7-(4-(3-Cyclopropylureido)-2-fluorophenoxy)thieno[3,2-b]pyridin-2-yl)pyridin-3-yl)methyl)-N-(2-(dimethylamino)ethyl)piperidine-3-carboxamide], the IC50 is reported as 8 nM.
`CC(=O)SCC(=O)N1CCN(Cc2ccc(-c3cc4nccc(Oc5ccc(NC(=O)NC6CC6)cc5F)c4s3)nc2)CC1` [Compound 22, S-2-(4-((6-(7-(4-(3-Cyclopropylureido)-2-fluorophenoxy)thieno[3,2-b]pyridin-2-yl)pyridin-3-yl)methyl)piperazin-1-yl)-2-oxoethyl ethanethioate] showed an IC50 of 15 nM.
`C[C@@H]1CN(C(=O)CO)CCN1Cc1ccc(-c2cc3nccc(Oc4ccc(NC(=O)NC5CC5)cc4F)c3s2)nc1` [Compound 26, (R)-1-Cyclopropyl-3-(3-fluoro-4-(2-(5-((4-(2-hydroxyacetyl)-2-methylpiperazin-1-yl)methyl)pyridin-2-yl)thieno[3,2-b]pyridin-7-yloxy)phenyl)urea] gave an IC50 of 4 nM.
For `CNCC(=O)N1CCN(Cc2ccc(-c3cc4nccc(Oc5ccc(NC(=O)NC6CC6)cc5F)c4s3)nc2)CC1` [Compound 28, 1-Cyclopropyl-3-(3-fluoro-4-(2-(5-((4-(2-(methylamino)acetyl)piperazin-1-yl)methyl)pyridin-2-yl)thieno[3,2-b]pyridin-7-yloxy)phenyl)urea], the IC50 was 5 nM.
`C[C@@H](O)CN1CCN(Cc2ccc(-c3cc4nccc(Oc5ccc(NC(=O)NC6CC6)cc5F)c4s3)nc2)CC1` [Compound 29, (R)-1-Cyclopropyl-3-(3-fluoro-4-(2-(5-((4-(2-hydroxypropyl)piperazin-1-yl)methyl)pyridin-2-yl)thieno[3,2-b]pyridin-7-yloxy)phenyl)urea] was tested, and the IC50 was 5 nM.
Molecule `COCCOCCOCC(=O)NC1CCN(Cc2ccc(-c3cc4nccc(Oc5ccc(NC(=O)NC6CC6)cc5F)c4s3)nc2)CC1` [Compound 31] has an IC50 of 17 nM.
In the case of `COCC(=O)N1CCN(Cc2ccc(-c3cc4nccc(Oc5ccc(NC(=O)NC6CC6)cc5F)c4s3)nc2)CC1` [Compound 32, 1-Cyclopropvl-3-(3-fluoro-4-(2-(5-((4-(2-methoxyacetyl)piperazin-1-yl)methyl)pyridin-2-yl)thieno[3,2-b]pyridin-7-yloxy)phenyl)urea], the IC50 is reported as 6 nM.
With `C[C@@H]1CN(Cc2ccc(-c3cc4nccc(Oc5ccc(NC(=O)NC6CC6)cc5F)c4s3)nc2)CCN1C(=O)CO` [Compound 33] the IC50 was 7 nM.
In the case of `CC(=O)OCC(=O)OCC(=O)N1CCN(Cc2ccc(-c3cc4nccc(Oc5ccc(NC(=O)NC6CC6)cc5F)c4s3)nc2)CC1` [Compound 34, 2-(4-((6-(7-(4-(3-Cyclopropylureido)-2-fluorophenoxy)thieno[3,2-b]pyridin-2-yl)pyridin-3-yl)methyl)piperazin-1-yl)-2-oxoethyl 2-acetoxyacetate], the IC50 is reported as 5 nM.
`CC(=O)OC(C)(C)C(=O)N1CCN(Cc2ccc(-c3cc4nccc(Oc5ccc(NC(=O)NC6CC6)cc5F)c4s3)nc2)CC1` [Compound 35, 1-(4-((6-(7-(4-(3-Cyclopropylureido)-2-fluorophenoxy)thieno[3,2-b]pyridin-2-yl)pyridin-3-yl)methyl)piperazin-1-yl)-2-methyl-1-oxopropan-2-yl acetate] was tested, and the IC50 was 4 nM.
With `COCCOCCOC(=O)N1CCN(Cc2ccc(-c3cc4nccc(Oc5ccc(NC(=O)NC6CC6)cc5F)c4s3)nc2)CC1` [Compound 75, 2-(2-Methoxyethoxy)ethyl 4-((6-(7-(4-(3-cyclopropylureido)-2-fluorophenoxy)thieno[3,2-b]pyridin-2-yl)pyridin-3-yl)methyl)piperazine-1-carboxylate] the IC50 was 16 nM.
`COCCOC(=O)N1CCN(Cc2ccc(-c3cc4nccc(Oc5ccc(NC(=O)NC6CC6)cc5F)c4s3)nc2)CC1` [Compound 76, 2-Methoxyethyl 4-((6-(7-(4-(3-cyclopropylureido)-2-fluorophenoxy)thieno[3,2-b]pyridin-2-yl)pyridin-3-yl)methyl)piperazine-1-carboxylate] showed an IC50 of 8 nM.
